The text below walks through data of US11266662B2, “Ganaxolone for use in prophylaxis and treatment of postpartum depression” (Marinus Pharmaceuticals, Inc., priority 2018, dated 2022).

Several values for one entry are separate records, joined by “and”; a condition that tells them apart may be missing. Equal entries are not always repeated. Entries after “also recorded” stand apart in the source; their conditions may differ.

Data set [1] can be described thus: Phase 2A study (Magnolia) in women with postpartum depression: ganaxolone plasma concentrations / pharmacokinetics. Particulars: for Ratio GNX Concentration (ng/mL)/(μg/hr/kg): individual subjects of Cohorts 1-3 (order of Table 1A), listed as GNX. The method, then: Approximately 200 women with PPD 18 to 45 years of age are screened to randomize up to 100 subjects across up to 6 cohorts. Approximately 10-30 subjects are randomized into each cohort. Randomized subjects receive the investigational product (IP), ganaxolone or matching placebo in a 1:1 ratio. In Cohorts 1-5 the IP is administered intravenously over 60 hours. In Cohort 6 the dosing is initiated with a 6-hour intravenous (IV) infusion followed by oral dosing for 28 days plus 3-day taper.
Ganaxolone is infused at a rate of 4 mg/hr (16 ml/h of ganaxolone 0.25 mg/ml solution) for 48 hours and then, to minimize any risks for withdrawal or rebound of anxiety and depression symptoms, at a rate of 2 mg/hr for the next 12 hours. The infusion is stopped at 60 hours. Total of 9 subjects are dosed for this cohort.
Ganaxolone is infused at a rate of 8 mg/hr (16 ml/h of ganaxolone 0.5 mg/ml solution) for 48 hours and then at a rate of 4 mg/hr for the next 12 hours. This dose is approximately double the expected plasma exposure as compared to Cohort 1 at steady state (Cohort 2 expected plasma concentration ˜100-120 ng/mL). The infusion is stopped at 60 hours.
Twelve mg bolus of ganaxolone is initially given over 2 minutes followed by ganaxolone infusion at a rate of 12 mg/hr (24 ml/h of ganaxolone 0.5 mg/ml solution) for 48 hours. The rate is then reduced to 6 mg/hr for the next 12 hours, which is done to minimize any risks for withdrawal or rebound of anxiety and depression symptoms. The infusion is stopped at 60 hours.
In this cohort dosing is initiated with ganaxolone infusion at a rate of 20 mg/hr (40 ml/h of ganaxolone 0.5 mg/ml solution or matching placebo) for 6 hours followed by ganaxolone 900 mg (four 225 mg capsules per dose) or matching placebo capsules given orally at dinner time for 28 days followed by a 3-day taper (three, two, and one 225 mg capsule(s) per day, respectively).
This initial infusion is targeted to provide a fast onset of antidepressant activity by delivery of rapid plasma exposures to ganaxolone. Then, at dinner time of Day 1 the subjects take their first oral dose of ganaxolone 900 mg (four 225 mg capsules) or matching placebo (4 capsules). […] In previous studies, ganaxolone has been given up to a daily dose of 2000 mg, and at single doses of 1000 mg.
Six samples are collected for pharmacokinetic analysis in Cohorts 1-5 and 12 samples in Cohort 6. […] Seven samples are collected during the inpatient phase of Cohort 6 (including 6 samples on Day 1) followed by collection of 5 samples during the outpatient phase during the study visits for a total of 12 samples in Cohort 6.

The nature of data set [2]: Tissue distribution of [14C]-ganaxolone. Particulars: mouse, rat, brain.
The nature of data set [3]: In vitro haemolysis / human plasma compatibility.
The test system of data set [4] is women with postpartum depression. Briefly: Phase 2A study: safety and tolerability (adverse events). It is filed as in vivo, human.

By AUC is commonly meant concentration integrated over time. Regarding `CC(=O)[C@H]1CC[C@H]2[C@@H]3CC[C@H]4C[C@](C)(O)CC[C@]4(C)[C@H]3CC[C@]12C` [ganaxolone, 3α-hydroxy-3β-methyl-5α-pregnan-20-one], the AUC was 5620 ng·h/mL in data set [1] (female, human, plasma, iv, 210 ug/kg, AUC24-48, calculated from Table 1C, dose 210 μg/kg/hr (row order of Table 1C)); 2650 ng·h/mL in data set [1] (female, human, plasma, iv, 220 ug/kg, AUC12-24, calculated from Table 1C, dose 220 μg/kg/hr (row order of Table 1C)); 8540 ng·h/mL in data set [1] (female, human, plasma, iv, 220 ug/kg, AUC12-48, calculated from Table 1C, dose 220 μg/kg/hr (row order of Table 1C)); 5890 ng·h/mL in data set [1] (female, human, plasma, iv, 220 ug/kg, AUC24-48, calculated from Table 1C, dose 220 μg/kg/hr (row order of Table 1C)); 3130 ng·h/mL in data set [1] (female, human, plasma, iv, 260 ug/kg, AUC12-24, calculated from Table 1C, dose 260 μg/kg/hr (row order of Table 1C)); 10100 ng·h/mL in data set [1] (female, human, plasma, iv, 260 ug/kg, AUC12-48, calculated from Table 1C, dose 260 μg/kg/hr (row order of Table 1C)). Moreover, the area under the curve (AUC) in data set [1] (female, human, plasma, iv, 260 ug/kg, AUC24-48, calculated from Table 1C, dose 260 μg/kg/hr (row order of Table 1C)) was 6960 ng·h/mL. This compound displayed a concentration at 12 h in data set [1] (female, human, plasma, iv, GNX Concentration, Cohort 1: IV 4 mg/hr for 48 h then 2 mg/hr for 12 h, individual subjects, time 12 hr) of 58.8 ng/mL. The concentration at 24 h in data set [1] (female, human, plasma, iv, GNX Concentration, Cohort 1: IV 4 mg/hr for 48 h then 2 mg/hr for 12 h, individual subjects, time 24 hr) was 72.6 ng/mL. Also, in data set [1] (female, human, plasma, iv, GNX Concentration, Cohort 1: IV 4 mg/hr for 48 h then 2 mg/hr for 12 h, individual subjects, time 48 hr), the concentration at 48 h was 78.1 ng/mL. The concentration at 72 h in data set [1] (female, human, plasma, iv, GNX Concentration, Cohort 1: IV 4 mg/hr for 48 h then 2 mg/hr for 12 h, individual subjects, time 72 hr) amounted to 10.1 ng/mL. Moreover, the “Ratio GNX Concentration (ng/mL)/(μg/hr/kg)” value in data set [1] (time 12 hrs) is 0.99 (ng/mL)/(μg/hr/kg) and 1.24 (ng/mL)/(μg/hr/kg) and 0.74 (ng/mL)/(μg/hr/kg) and 1.21 (ng/mL)/(μg/hr/kg) (3×) and 0.94 (ng/mL)/(μg/hr/kg) and 0.90 (ng/mL)/(μg/hr/kg) and 0.87 (ng/mL)/(μg/hr/kg) and 0.76 (ng/mL)/(μg/hr/kg) and 1.08 (ng/mL)/(μg/hr/kg) (2×) and 0.53 (ng/mL)/(μg/hr/kg) and 1.14 (ng/mL)/(μg/hr/kg) and 0.83 (ng/mL)/(μg/hr/kg) and 0.89 (ng/mL)/(μg/hr/kg) and 0.97 (ng/mL)/(μg/hr/kg) (3×) and 0.82 (ng/mL)/(μg/hr/kg) and 0.80 (ng/mL)/(μg/hr/kg) (2×) and 1.02 (ng/mL)/(μg/hr/kg) and 0.86 (ng/mL)/(μg/hr/kg) and 0.60 (ng/mL)/(μg/hr/kg) and 1.28 (ng/mL)/(μg/hr/kg); in data set [1] (time 24 hrs), 1.22 (ng/mL)/(μg/hr/kg) (3×) and 1.45 (ng/mL)/(μg/hr/kg) and 0.96 (ng/mL)/(μg/hr/kg) (2×) and 1.53 (ng/mL)/(μg/hr/kg) and 0.28 (ng/mL)/(μg/hr/kg) and 0.63 (ng/mL)/(μg/hr/kg) and 1.12 (ng/mL)/(μg/hr/kg) (3×) and 1.32 (ng/mL)/(μg/hr/kg) (2×) and 0.86 (ng/mL)/(μg/hr/kg) and 1.36 (ng/mL)/(μg/hr/kg) and 1.03 (ng/mL)/(μg/hr/kg) (2×) and 1.16 (ng/mL)/(μg/hr/kg) and 1.34 (ng/mL)/(μg/hr/kg) and 0.95 (ng/mL)/(μg/hr/kg) and 0.92 (ng/mL)/(μg/hr/kg) and 1.48 (ng/mL)/(μg/hr/kg) and 0.55 (ng/mL)/(μg/hr/kg) and 0.13 (ng/mL)/(μg/hr/kg); in data set [1] (time 48 hrs) it was 1.31 (ng/mL)/(μg/hr/kg) and 1.39 (ng/mL)/(μg/hr/kg) and 1.42 (ng/mL)/(μg/hr/kg) and 1.12 (ng/mL)/(μg/hr/kg) and 1.23 (ng/mL)/(μg/hr/kg) (2×) and 1.01 (ng/mL)/(μg/hr/kg) and 0.97 (ng/mL)/(μg/hr/kg) and 1.06 (ng/mL)/(μg/hr/kg) and 0.81 (ng/mL)/(μg/hr/kg) and 1.09 (ng/mL)/(μg/hr/kg) and 0.78 (ng/mL)/(μg/hr/kg) (2×) and 1.02 (ng/mL)/(μg/hr/kg) and 1.76 (ng/mL)/(μg/hr/kg) and 1.17 (ng/mL)/(μg/hr/kg) and 1.47 (ng/mL)/(μg/hr/kg) and 1.20 (ng/mL)/(μg/hr/kg) and 1.60 (ng/mL)/(μg/hr/kg) and 0.55 (ng/mL)/(μg/hr/kg) and 1.56 (ng/mL)/(μg/hr/kg) and 0.80 (ng/mL)/(μg/hr/kg) and 0.84 (ng/mL)/(μg/hr/kg); in data set [1] (time 72 hrs), 0.17 (ng/mL)/(μg/hr/kg) (2×) and 0.31 (ng/mL)/(μg/hr/kg) and 0.28 (ng/mL)/(μg/hr/kg) and 0.33 (ng/mL)/(μg/hr/kg) (2×) and 0.18 (ng/mL)/(μg/hr/kg) and 0.10 (ng/mL)/(μg/hr/kg) and 0.25 (ng/mL)/(μg/hr/kg) and 0.32 (ng/mL)/(μg/hr/kg) and 0.29 (ng/mL)/(μg/hr/kg) and 0.24 (ng/mL)/(μg/hr/kg) and 0.21 (ng/mL)/(μg/hr/kg) (2×) and 0.36 (ng/mL)/(μg/hr/kg) and 0.16 (ng/mL)/(μg/hr/kg) (2×) and 0.13 (ng/mL)/(μg/hr/kg) (2×) and 0.23 (ng/mL)/(μg/hr/kg) (2×) and 0.34 (ng/mL)/(μg/hr/kg) and 0.35 (ng/mL)/(μg/hr/kg) and 0.38 (ng/mL)/(μg/hr/kg) and 0.19 (ng/mL)/(μg/hr/kg) (2×). The Kp in data set [2] is ~5. Further, the Haemolysis entry in data set [3] is listed as “did not cause haemolysis; also recorded: did not cause hemolysis”. Besides, the “Serious adverse events or adverse events leading to discontinuation” value in data set [4] (Cohort 1: IV 4 mg/hr for 48 h then 2 mg/hr for 12 h, 9 subjects) is recorded as “no serious adverse events or adverse events leading to discontinuation”. In data set [4] (Cohort 6), the “DC for AE” value is 0 n (%). In data set [4] (Cohort 6), this compound displayed an Incidence of dizziness of 25%. In addition, the “Serious adverse events or adverse events leading to treatment discontinuation” value in data set [4] (Cohort 6) is “no serious adverse events or adverse events leading to treatment discontinuation”. For the same compound, the “TEAE somnolence” value in data set [4] (Cohort 6) is listed as 0 n (%). Further, the “Incidence of somnolence and sedation” value in data set [4] (Cohort 6: IV 20 mg/hr for 6 hours and 900 mg orally with dinner) was > 30% and 31.3%. In addition, the “Tolerability of oral administration” value in data set [4] (Cohort 6, 900 mg orally with dinner, after Day 2) was “well tolerated”.
